Test results published in patent publication US8263642B2, “Antimicrobial compounds and methods of use thereof” (Vanderbilt University, priority 2008, dated 2012).

Assays:
[1] = system: HssRS-dependent hrtAB expression; test: Luminescence-based assay to monitor HssRS-dependent hrtAB expression (phrtABlux reporter), Newman; type: cell-based, Staphylococcus aureus; details: Newman; for activation at 0.0825 µM: Staphylococcus aureus, NEWMAN, read-out: % Lumi, luminescence induced by the compound compared to the heme control (82.5 nM) in the same plate; for Luminescence: raw luminescence value obtained in a luminometer
In short: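 S. aureus Newman wild type or ΔhssR carrying a hrtAB promoter–luxCDABE reporter (phrtABlux), grown in TSB with 10 μg/ml chloramphenicol at 37 °C. Light output read against 82.5 nM heme as the in-plate positive control. Activity given as % of heme-induced luminescence.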

[2] = system: hrtAB-driven expression of the xylE reporter gene; test: XylE reporter assay (hrtAB promoter-xylE), Newman; type: cell-based, Staphylococcus aureus; details: for XylE (0.05): level of XylE induction at 0.05 uM of the compound; for XylE (0.5): level of XylE induction at 0.5 uM of the compound; for XylE (5.0): level of XylE induction at 5.0 uM of the compound; for XylE (50.0): level of XylE induction at 50.0 uM of the compound
In short: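 S. aureus carrying hrtAB promoter-xylE fusion in pOS1 grown O/N at 37° C in TSB with chloramphenicol, lysed with lysostaphin. Lysate XylE activity read as 2-hydroxymuconic semialdehyde formation from 0.2 mM pyrocatechol (A375, every minute for 30 minutes), normalised to BCA protein; unit = 1 nmol/min/mg at 30° C.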

| SMILES | activation at 0.0825 µM [1] | Luminescence [1] | XylE (0.05) [2] | XylE (0.5) [2] | XylE (5.0) [2] | XylE (50.0) [2] |
| --- | --- | --- | --- | --- | --- | --- |
| CC(NC(=O)C1(c2ccccc2)CCCC1)C1COc2ccccc2O1 (stereo not drawn) [drawing 26] | 266% | 757 | 0.06 | 0.05 | 0.7 | 200 |
| CC(C)(C)c1ccc(O)c(NC(=S)NC(=O)c2cc3ccccc3o2)c1 | 101% | 419 | 0.09 | 0.8 | 0.9 | 1 |
| O=C(N/N=C/c1ccc(-c2cccc(C(F)(F)F)c2)o1)C1COc2ccccc2O1 (stereo not drawn) [drawing 49] | 152% | 558 | 0.07 | 0 | 0.6 | 0.09 |
| COc1ccc(C(=O)Nc2sc(-c3ccccc3)cc2C(N)=O)cc1 | 244% | 1781 | 0.07 | 0.09 | 4 | 6 |
| CC(NC(=O)C1(c2ccccc2)CCCC1)C1COc2ccccc2O1 (stereo not drawn) [drawing 45] | – | 757 | 0.04 | 0.1 | 0.7 | 0.05 |
| CCCN1C(=O)/C(=C2/C(=O)N(CC(=O)Nc3ccc(Cl)cc3)c3ccccc32)SC1=S [drawing 67] | – | 98 | 0.02 | 0.04 | 0.05 | 1 |
| Cc1ccc(O)c(NC(=O)c2nn3c(c2Br)NC(c2ccco2)CC3C(F)(F)F)c1 (stereo not drawn) [drawing 29] | 307% | 1949 | 0.05 | 0.06 | 5 | 3 |
| COc1ccc(Br)cc1C(=O)NC(=S)Nc1cc(C)c(C)cc1O [drawing 63] | – | 946 | 0.08 | 0.8 | 0.9 | 2 |
| COc1ccc(-c2cc(-c3ccc(OC)cc3O)n[nH]2)cc1 | 238% | 1482 | 0.06 | 0.02 | 0.7 | 4 |
| Cc1cccc(C(=O)Nc2ccc(-c3nc4ccccc4o3)cc2)c1 [drawing 43] | – | 837 | 0.09 | 0.7 | 1 | 0.09 |
| Cc1ccc(NS(=O)(=O)c2ccc3c(c2)Cc2cc(S(=O)(=O)Nc4ccc(C)cc4)ccc2-3)cc1 [drawing 74] | – | 7328 | 1 | 1 | 15 | 14 |
| COc1ccc(-c2cc(-c3ccc(C)cc3)[nH]n2)c(O)c1 | 180% | 1122 | 0.08 | 0.02 | 0.07 | 0.09 |
| Fc1ccc(CNC(=S)Nc2ccc(Oc3ccccc3)cc2)cc1 | 362% | 1570 | 0.06 | 0.05 | 0.2 | 1 |
| Oc1c(-c2cc(-c3ccco3)[nH]n2)ccc2ccccc12 [drawing 65] | 630% | 2622 | 0.4 | 0.07 | 12 | 5 |
| Oc1c(-c2cc(-c3ccco3)[nH]n2)ccc2ccccc12 [drawing 25] | – | 2622 | 0.07 | 0.06 | 0.2 | 1000 |
| O=C(N/N=C/c1ccc(-c2ccc(Br)cc2)o1)C1COc2ccccc2O1 (stereo not drawn) [drawing 48] | 133% | 485 | 0.02 | 0.08 | 0.7 | 0.2 |
| COc1ccccc1NC1=C/C(=N\S(=O)(=O)c2ccc(Br)cc2)c2ccccc2C1=O [drawing 81] | 510% | 2270 | 1 | 1 | 1 | 1 |
